For experiment [1], the target named is T1, 5-hydroxytryptamine receptor 1A (Homo sapiens, UniProt P08908).
T1 sequence (P08908 whole entry): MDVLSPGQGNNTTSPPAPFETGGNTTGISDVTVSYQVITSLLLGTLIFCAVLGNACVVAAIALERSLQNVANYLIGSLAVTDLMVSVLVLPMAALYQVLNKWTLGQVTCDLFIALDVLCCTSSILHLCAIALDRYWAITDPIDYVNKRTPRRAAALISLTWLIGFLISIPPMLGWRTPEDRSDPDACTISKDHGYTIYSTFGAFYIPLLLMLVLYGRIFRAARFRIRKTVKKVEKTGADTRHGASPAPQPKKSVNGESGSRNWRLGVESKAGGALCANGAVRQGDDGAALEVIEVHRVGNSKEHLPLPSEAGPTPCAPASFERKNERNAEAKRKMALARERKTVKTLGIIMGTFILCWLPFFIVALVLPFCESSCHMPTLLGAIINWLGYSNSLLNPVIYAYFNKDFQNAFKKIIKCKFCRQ
The format is functional, cell-based.

The target of experiment [2] is T2, Endothelin-1 receptor (Homo sapiens, UniProt P25101).
T2 sequence (P25101 whole entry): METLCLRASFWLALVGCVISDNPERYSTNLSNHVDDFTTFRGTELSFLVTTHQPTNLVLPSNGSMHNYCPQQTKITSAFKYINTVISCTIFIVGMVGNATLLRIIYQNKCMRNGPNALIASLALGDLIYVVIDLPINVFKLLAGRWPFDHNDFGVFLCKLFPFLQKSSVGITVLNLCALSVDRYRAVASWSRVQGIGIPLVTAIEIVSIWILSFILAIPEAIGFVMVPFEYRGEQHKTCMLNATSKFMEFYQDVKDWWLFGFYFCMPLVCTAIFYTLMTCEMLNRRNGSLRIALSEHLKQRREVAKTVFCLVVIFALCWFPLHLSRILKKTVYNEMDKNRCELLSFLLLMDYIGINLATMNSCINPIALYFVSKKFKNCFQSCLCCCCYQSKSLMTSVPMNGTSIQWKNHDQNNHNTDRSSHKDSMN

Experiment [3] deals with T3, Glucocorticoid receptor (Homo sapiens, UniProt P04150).
T3 sequence (P04150 whole entry): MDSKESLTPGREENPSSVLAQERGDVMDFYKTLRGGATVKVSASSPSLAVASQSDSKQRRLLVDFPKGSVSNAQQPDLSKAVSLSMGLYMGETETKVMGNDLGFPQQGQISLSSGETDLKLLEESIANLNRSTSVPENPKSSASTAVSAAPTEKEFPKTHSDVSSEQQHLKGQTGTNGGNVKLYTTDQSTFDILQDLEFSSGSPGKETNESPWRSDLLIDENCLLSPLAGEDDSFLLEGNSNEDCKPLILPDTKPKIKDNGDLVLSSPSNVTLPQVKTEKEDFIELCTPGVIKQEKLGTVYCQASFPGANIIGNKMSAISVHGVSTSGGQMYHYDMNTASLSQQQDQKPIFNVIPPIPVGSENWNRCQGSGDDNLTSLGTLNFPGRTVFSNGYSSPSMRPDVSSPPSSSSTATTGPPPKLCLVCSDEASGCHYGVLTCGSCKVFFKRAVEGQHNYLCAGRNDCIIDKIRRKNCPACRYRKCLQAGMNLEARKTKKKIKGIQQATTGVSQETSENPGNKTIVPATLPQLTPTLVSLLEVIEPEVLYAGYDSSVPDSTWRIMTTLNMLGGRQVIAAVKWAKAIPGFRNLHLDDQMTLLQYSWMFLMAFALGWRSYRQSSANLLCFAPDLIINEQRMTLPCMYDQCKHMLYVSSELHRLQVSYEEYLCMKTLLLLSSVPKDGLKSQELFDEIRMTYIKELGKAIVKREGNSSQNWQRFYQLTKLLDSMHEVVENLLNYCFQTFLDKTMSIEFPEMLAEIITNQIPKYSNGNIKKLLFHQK

Experiment [4] concerns the target Voltage-dependent L-type calcium channel subunit alpha-1C (Rattus norvegicus, UniProt P22002). The experiment is classed as functional.
For experiment [5], the target named is D(1A) dopamine receptor (Homo sapiens, UniProt P21728).
Experiment [6] deals with Acetylcholinesterase (Homo sapiens, UniProt P22303). The format is functional.
In experiment [7] the target is T4, Progesterone receptor (Homo sapiens, UniProt P06401).
T4 sequence (P06401 whole entry): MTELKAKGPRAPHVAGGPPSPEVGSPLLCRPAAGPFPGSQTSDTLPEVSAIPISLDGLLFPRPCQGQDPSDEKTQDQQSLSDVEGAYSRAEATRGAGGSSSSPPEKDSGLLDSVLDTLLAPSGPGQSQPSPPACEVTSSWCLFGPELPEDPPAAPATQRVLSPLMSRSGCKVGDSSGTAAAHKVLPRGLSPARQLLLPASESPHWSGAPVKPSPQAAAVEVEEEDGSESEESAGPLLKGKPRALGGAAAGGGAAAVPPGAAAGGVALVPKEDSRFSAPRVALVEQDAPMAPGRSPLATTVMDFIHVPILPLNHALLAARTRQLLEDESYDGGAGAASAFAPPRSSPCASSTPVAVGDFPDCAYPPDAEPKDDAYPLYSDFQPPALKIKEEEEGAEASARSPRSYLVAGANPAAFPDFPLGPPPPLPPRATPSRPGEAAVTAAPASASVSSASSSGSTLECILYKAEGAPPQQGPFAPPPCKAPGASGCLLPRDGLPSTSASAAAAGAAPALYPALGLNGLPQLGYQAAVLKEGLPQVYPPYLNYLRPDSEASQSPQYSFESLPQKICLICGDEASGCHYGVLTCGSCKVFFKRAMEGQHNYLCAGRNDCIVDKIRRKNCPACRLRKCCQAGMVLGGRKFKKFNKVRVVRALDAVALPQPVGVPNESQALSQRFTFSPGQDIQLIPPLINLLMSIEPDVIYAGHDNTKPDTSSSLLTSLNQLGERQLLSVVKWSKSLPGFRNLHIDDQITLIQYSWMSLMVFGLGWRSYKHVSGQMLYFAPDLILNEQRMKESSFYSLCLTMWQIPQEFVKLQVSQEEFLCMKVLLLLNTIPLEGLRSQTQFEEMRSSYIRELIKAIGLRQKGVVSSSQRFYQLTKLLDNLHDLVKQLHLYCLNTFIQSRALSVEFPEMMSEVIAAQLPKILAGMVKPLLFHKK

Experiment [8] addresses Sodium-dependent dopamine transporter (Homo sapiens, UniProt Q01959).
Note: assay procedure not described here.

Voltage-dependent L-type calcium channel subunit alpha-1C, sequence (P22002 whole entry): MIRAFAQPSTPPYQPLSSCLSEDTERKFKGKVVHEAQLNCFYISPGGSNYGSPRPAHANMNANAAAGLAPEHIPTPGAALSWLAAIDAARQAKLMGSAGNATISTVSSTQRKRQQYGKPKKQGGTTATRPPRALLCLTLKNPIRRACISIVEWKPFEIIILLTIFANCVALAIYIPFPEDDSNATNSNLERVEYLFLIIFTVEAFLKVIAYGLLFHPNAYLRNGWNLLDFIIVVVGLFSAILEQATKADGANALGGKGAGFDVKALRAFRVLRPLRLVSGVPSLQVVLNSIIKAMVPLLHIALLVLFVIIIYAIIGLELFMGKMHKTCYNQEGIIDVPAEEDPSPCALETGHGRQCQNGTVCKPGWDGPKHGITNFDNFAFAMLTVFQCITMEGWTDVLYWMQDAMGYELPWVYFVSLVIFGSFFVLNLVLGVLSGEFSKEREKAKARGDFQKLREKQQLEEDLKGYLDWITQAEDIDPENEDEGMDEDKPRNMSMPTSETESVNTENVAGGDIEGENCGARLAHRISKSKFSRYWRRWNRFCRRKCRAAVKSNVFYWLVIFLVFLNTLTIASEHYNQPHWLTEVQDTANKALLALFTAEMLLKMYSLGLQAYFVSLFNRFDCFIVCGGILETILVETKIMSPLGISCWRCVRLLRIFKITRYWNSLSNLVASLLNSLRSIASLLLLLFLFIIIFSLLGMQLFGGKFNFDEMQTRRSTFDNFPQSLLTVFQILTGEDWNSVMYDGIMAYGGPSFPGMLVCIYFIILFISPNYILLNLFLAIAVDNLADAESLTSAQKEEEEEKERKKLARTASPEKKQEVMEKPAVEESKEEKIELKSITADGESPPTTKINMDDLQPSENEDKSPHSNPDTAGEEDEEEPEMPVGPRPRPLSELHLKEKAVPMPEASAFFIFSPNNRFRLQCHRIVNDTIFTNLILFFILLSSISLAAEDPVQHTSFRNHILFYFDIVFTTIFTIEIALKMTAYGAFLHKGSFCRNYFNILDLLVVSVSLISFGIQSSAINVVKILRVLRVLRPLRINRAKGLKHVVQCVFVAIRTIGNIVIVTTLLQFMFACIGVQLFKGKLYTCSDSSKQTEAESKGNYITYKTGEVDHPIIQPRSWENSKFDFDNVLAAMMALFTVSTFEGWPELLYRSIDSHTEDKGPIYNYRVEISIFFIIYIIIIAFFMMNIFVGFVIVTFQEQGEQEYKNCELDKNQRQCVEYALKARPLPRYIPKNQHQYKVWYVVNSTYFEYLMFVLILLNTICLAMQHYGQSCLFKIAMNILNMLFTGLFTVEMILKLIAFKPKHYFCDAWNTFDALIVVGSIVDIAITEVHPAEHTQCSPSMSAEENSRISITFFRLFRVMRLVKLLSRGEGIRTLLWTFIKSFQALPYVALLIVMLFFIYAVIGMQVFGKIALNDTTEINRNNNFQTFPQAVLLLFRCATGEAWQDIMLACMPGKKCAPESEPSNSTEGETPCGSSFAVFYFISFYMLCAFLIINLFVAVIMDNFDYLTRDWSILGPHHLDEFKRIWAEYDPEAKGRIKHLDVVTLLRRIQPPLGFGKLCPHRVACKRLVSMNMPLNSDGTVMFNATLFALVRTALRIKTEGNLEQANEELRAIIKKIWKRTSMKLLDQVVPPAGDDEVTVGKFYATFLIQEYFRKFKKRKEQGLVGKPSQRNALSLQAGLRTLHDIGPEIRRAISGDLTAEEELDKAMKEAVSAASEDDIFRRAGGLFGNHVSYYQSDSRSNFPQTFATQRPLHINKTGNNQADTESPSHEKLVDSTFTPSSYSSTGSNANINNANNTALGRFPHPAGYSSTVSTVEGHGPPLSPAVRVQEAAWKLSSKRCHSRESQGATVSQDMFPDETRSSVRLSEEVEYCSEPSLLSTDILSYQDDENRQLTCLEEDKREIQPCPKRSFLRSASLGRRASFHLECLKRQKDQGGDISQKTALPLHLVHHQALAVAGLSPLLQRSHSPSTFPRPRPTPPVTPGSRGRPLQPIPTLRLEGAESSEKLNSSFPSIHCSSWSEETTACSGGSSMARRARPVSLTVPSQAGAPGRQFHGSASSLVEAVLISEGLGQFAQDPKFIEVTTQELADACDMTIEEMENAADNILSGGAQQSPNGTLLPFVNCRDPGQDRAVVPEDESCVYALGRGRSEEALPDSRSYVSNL
D(1A) dopamine receptor, sequence (P21728 whole entry): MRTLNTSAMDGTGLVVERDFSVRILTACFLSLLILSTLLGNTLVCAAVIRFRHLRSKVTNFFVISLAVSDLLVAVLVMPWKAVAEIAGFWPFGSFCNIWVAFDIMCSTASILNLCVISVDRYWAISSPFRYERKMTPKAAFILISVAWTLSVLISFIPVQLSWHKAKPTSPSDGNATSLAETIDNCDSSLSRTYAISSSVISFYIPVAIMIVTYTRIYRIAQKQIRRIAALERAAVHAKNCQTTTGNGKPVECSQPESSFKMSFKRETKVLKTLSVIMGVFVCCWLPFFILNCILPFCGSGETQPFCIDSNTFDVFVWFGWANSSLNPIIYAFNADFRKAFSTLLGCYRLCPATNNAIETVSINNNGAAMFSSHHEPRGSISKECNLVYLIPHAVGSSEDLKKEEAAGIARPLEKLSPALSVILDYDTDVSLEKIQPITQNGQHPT
Acetylcholinesterase, sequence (P22303 whole entry): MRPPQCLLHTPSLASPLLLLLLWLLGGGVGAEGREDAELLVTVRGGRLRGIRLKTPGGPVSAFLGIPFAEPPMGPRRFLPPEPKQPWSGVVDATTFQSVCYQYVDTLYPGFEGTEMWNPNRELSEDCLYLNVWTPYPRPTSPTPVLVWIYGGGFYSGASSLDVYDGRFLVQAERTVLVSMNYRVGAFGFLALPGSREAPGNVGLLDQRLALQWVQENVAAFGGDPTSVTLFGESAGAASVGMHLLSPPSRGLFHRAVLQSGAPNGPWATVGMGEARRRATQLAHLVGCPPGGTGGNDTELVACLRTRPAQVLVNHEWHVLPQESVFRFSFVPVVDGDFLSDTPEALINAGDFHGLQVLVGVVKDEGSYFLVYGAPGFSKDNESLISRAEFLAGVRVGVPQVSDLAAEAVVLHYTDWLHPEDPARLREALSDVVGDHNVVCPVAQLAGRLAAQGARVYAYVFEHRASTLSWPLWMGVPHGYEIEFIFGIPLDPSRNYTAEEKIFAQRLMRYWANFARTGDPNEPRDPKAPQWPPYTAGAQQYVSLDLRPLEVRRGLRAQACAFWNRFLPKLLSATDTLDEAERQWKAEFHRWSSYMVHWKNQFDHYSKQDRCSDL
Sodium-dependent dopamine transporter, sequence (Q01959 whole entry): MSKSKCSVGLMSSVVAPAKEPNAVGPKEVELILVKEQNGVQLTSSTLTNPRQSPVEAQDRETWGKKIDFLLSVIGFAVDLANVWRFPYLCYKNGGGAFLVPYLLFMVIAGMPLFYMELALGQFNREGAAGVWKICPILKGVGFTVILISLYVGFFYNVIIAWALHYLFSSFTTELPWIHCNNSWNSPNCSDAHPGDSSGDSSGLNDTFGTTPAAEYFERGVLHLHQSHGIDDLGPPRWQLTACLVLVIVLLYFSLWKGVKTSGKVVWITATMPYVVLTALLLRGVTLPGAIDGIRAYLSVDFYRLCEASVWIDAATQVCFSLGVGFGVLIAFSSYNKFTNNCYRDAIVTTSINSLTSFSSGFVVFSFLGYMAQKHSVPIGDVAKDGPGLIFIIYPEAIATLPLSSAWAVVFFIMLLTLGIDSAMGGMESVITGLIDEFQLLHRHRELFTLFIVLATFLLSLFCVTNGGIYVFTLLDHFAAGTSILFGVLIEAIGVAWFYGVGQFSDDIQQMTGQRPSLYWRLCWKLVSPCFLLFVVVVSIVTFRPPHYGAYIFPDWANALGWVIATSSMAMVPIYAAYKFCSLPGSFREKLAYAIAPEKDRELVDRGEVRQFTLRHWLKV

As for `CCOC(=O)[C@H](CCc1ccccc1)N[C@@H](C)C(=O)N1Cc2ccccc2C[C@H]1C(=O)O`, the AC50 (in general, the midpoint of the concentration-response curve, whichever way the signal moves) in experiment [1] is above 10 µM; in experiment [2] it was above 30 µM; in experiment [3] it was above 30 µM; in experiment [4] it was above 10 µM; in experiment [5], above 30 µM; in experiment [6], above 30 µM. In addition, the AC50 in experiment [7] and in experiment [8] was above 30 µM each time.

Turning to `NCCCNCCSP(=O)(O)O` [AMIFOSTINE], the AC50 in experiment [1], in experiment [2] and in experiment [3] was above 30 µM throughout.

As for `CN(C)CCC=C1c2ccccc2CCc2ccccc21` [AMITRIPTYLINE], the AC50 in experiment [2] was above 30 µM; in experiment [3], above 30 µM; in experiment [4], above 10 µM; in experiment [6], above 30 µM; in experiment [7] it was above 30 µM; in experiment [8] it was 7.42 µM.

Regarding `CC(=O)Oc1ccccc1C(=O)O` [ASPIRIN], the AC50 was above 10 µM in experiment [1]; above 30 µM in experiment [2]; above 30 µM in experiment [3]; above 10 µM in experiment [4]; above 30 µM in experiment [5]; above 30 µM in experiment [6]. Moreover, the AC50 in experiment [7] and in experiment [8] was above 30 µM in each case.

In the case of `CN(C)CCOC(c1ccc(Cl)cc1)c1ccccn1` (centres undefined) [CARBINOXAMINE], the concentration at half-maximal activity (AC50) in experiment [1], in experiment [2] and in experiment [3] was above 30 µM in each case.

With `CCN(CC)CCn1c(=O)c(Cc2ccc(OC)cc2)nc2ccccc21` [CAROVERINE], the AC50 in experiment [1], in experiment [2], in experiment [3] and in experiment [4] was above 30 µM throughout.

Take `CN(C)CCCC1(c2ccc(F)cc2)OCc2cc(C#N)ccc21` (centres undefined) [CITALOPRAM]: the AC50 in experiment [1] was above 10 µM; in experiment [2], above 30 µM; in experiment [3] it was above 30 µM; in experiment [4], above 10 µM; in experiment [6], above 30 µM; in experiment [7] it was above 30 µM.

Consider `CC(C)/N=c1\cc2n(-c3ccc(Cl)cc3)c3ccccc3nc-2cc1Nc1ccc(Cl)cc1` [CLOFAZIMINE], for which the concentration at half-maximal activity (AC50) is above 30 µM in experiment [1], above 30 µM in experiment [2], 0.034 µM in experiment [3] and 5 µM in experiment [4].

In the case of `COC(=O)CCc1ccc(OCC(O)CNC(C)C)cc1` (centres undefined) [ESMOLOL], the AC50 in experiment [2], in experiment [3] and in experiment [4] was above 30 µM throughout.

`O=c1[nH]cc(F)c(=O)[nH]1` [FLUOROURACIL]: the AC50 in experiment [2], in experiment [3], in experiment [6], in experiment [7] and in experiment [8] was above 30 µM each time.

In the case of `CCOC(=O)Nc1ccc(NCc2ccc(F)cc2)nc1N` [FLUPIRTINE], the AC50 was 22 µM in experiment [1], above 30 µM in experiment [2], above 30 µM in experiment [3] and above 30 µM in experiment [4].

With `NCC1(CC(=O)O)CCCCC1` [GABAPENTIN], the AC50 in experiment [1] is above 30 µM; in experiment [2], above 30 µM; in experiment [3] it was above 30 µM; in experiment [4] it was above 10 µM; in experiment [5], above 30 µM; in experiment [6] it was above 30 µM. Further, the AC50 in experiment [7] and in experiment [8] was above 30 µM each time.

Take `N[C@@H](Cc1cc(I)c(Oc2cc(I)c(O)c(I)c2)c(I)c1)C(=O)O` [LEVOTHYROXINE]: the AC50 in experiment [1], in experiment [2] and in experiment [3] was above 30 µM throughout.

On to `CC(=O)NC[C@H]1CN(c2ccc(N3CCOCC3)c(F)c2)C(=O)O1` [LINEZOLID], for which the AC50 in experiment [1], in experiment [2] and in experiment [3] was above 30 µM throughout.

On to `CC(=O)SCC(Cc1ccccc1)C(=O)NCC(=O)OCc1ccccc1` (centres undefined) [RACECADOTRIL], for which the AC50 was above 30 µM in experiment [1], above 30 µM in experiment [2], above 30 µM in experiment [3] and 28 µM in experiment [4].

As to `Cc1c(C)c2c(c(C)c1O)CCC(C)(COc1ccc(CC3SC(=O)NC3=O)cc1)O2` (centres undefined) [TROGLITAZONE], the AC50 was 6.9 µM in experiment [1]; above 30 µM in experiment [2]; 21 µM in experiment [4]; 8.59 µM in experiment [5]; above 30 µM in experiment [6]; 3.55 µM in experiment [7]. For the same molecule, the AC50 in experiment [8] was determined as 8.75 µM.

The values are drawn from ChEMBL document CHEMBL5291721, “A preclinical secondary pharmacology resource illuminates target-adverse drug reaction associations of marketed drugs” (Nat Commun, 2023).
